Measurements as given in patent US5795885A, “Method of inhibiting profileration of cells by administering an aminosterol compound” (priority 1995, dated 1998).

Assays:
human NHE1 = assay: internal pH recovery, PS120 fibroblasts transfected with human NHE1 (BCECF-AM); type: cell-based; details: 5 μg/ml; acid-preloaded by 40 mM NH4Cl
Description: PS120 fibroblasts transfected with rabbit or human NHE1 were grown as described above.

rabbit NHE3 = rabbit NHE3 (Oryctolagus cuniculus, UniProt P26432); details: 5 μg/ml
Description: Internal pH was measured either following acid loading or in the absence of an acid-loading challenge, with the results shown in FIGS. 1A and 1B.
Specifically, PS120 fibroblasts transfected with rabbit NHE3 were grown in supplemented Dulbecco's-modified Eagle's medium as described by Levine et al., J. Biol. Chem. 268, 1993, 25527-25535. […] For cells not acid-preloaded, the actual internal pH value was monitored as a function of time following addition of squalamine, with the results depicted in FIG. 1B.
PS120 fibroblasts transfected with rabbit NHE3 were grown and acid preloaded by exposure to 40 mM NH4 Cl as described above in conjunction with FIGS. 1A and 1B. Internal cellular pH changes expressed as the rate of pH recovery as a function of restored extracellular sodium ion concentration following exposure to 10 μg/ml of the compound were assayed with the fluorescent dye BCECF-AM as described above.

[1] = test system: human coronary artery smooth muscle; assay: proliferation of human coronary artery smooth muscle in vitro; type: cell-based; details: FIG. 15
Text: Aminosterols of the invention may also have utility in inhibiting the growth factor mediated proliferation of smooth muscle within the artery. Following coronary angioplasty, reocclusion commonly occurs, secondary to reparative proliferation of the vascular smooth muscle within the wall of the surgically manipulated blood vessel. This process generally takes place over the course of 7-10 days. To evaluate whether an agent could prevent the growth factor mediated proliferation of smooth muscle within the artery, compound 1436 was evaluated in vitro for its effect on the proliferation of human coronary artery smooth muscle. Results for compound 1436 are shown in FIG. 13, and those for squalamine are shown in FIG. 14, with FIG. 15 being a composite logarithmic plot.

[2] = test system: chick embryo vitelline capillaries; assay: chick embryo vitelline capillary regression assay; type: in vivo; parameters: key to vitelline capillary regression: +: Vascular reactivity; 0: No vascular reactivity; +/-: Equivocal reactivity; details: for vitelline capillary regression: 60 minutes
Summary of the method: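 Compounds applied to 3- to 5-day chick embryos in 0.1 ml of 15% Ficol 400 in PBS. Regression of vitelline capillaries, seen as pinching-off of capillary loops into enclosed sacs, was scored visually after 60 minutes.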

[3] = test system: VX2 carcinoma implanted into the rabbit cornea; assay: tumor-induced (VX2 carcinoma) corneal neovascularization in rabbits; type: in vivo; details: ELVAX 40 P pellet
Text: The implantation of VX2 carcinoma into the rabbit cornea results in the induction of new blood vessels within several days (Tamargo et al., Cancer Research 51, 1991, 672-675). It is believed that this carcinoma secretes growth factors that stimulate new blood-vessel growth. Thus, this model is indicative in vivo evidence of therapeutic utility in the treatment of pathological disorders of vascularization, including the metastatic spread of tumors, diabetic retinopathy, macular degeneration, and rheumatoid arthritis.
This experiment followed the published protocol--tumor was implanted adjacent to a polymer containing a concentration of the agent to be evaluated. The polymer releases the agent slowly in the immediate neighborhood of the tumor, providing sustained high local concentrations of the agent. In this experiment, squalamine introduced into a pellet of ELVAX 40 P (DuPont, Wilmington, Del.) inhibited new blood vessel formation by about 60% at days 7 and 14, and by about 25% at day 21.

Murine B16 melanoma = assay: growth inhibition in vitro; type: cell-based; details: except at very high concentrations
Text: As set forth in Table 7 below, all malignant tumors evaluated in tissue culture, endothelial cells and vascular smooth muscle cells were sensitive to inhibition. Thus, compound 1436 has application in the control of growth factor dependent proliferation of many types of tissue.

[4] = test system: bovine pulmonary endothelial cells; assay: growth inhibition of bovine pulmonary endothelial cells in vitro; type: cell-based; details: 1 μg/ml
[5] = test system: chick chorioallantoic membrane; assay: chorioallantoic membrane (CAM) model, capillary growth; type: in vivo
Text: The growing capillaries within the chorioallantoic membrane model (CAM model) have been used as a system in which to evaluate the effect of agents on their potential to inhibit new vessel growth. Neovascularization occurs most aggressively over the first week of embryonic development. Thereafter capillary growth is characterized by principally "elongation" rather than "de novo" formation.
In the standard assay, agents are applied locally to a region of the embryo over which neovascularization will occur. Agents are assessed by their ability to inhibit this process, as evaluated by visual examination about 7 days after application. […] The assay utilized is described in detail in Auerbach et al., Pharm. Ther. 51, 1991, 1-11.

[6] = test system: human epithelial cell line MCF 10A; assay: growth inhibition of human epithelial cells in vitro; type: cell-based; details: 10 μg/ml
[7] = test system: PHA-stimulated human lymphocytes; assay: inhibition of mitogen (PHA)-stimulated growth of human T-cells; type: cell-based
Text: Results are tabulated below.

B16 melanoma = B16 melanoma growth in C57B mice; type: in vivo, mouse
Description: The growth of B16 melanoma in C57B mice is dependent upon neovascularization.
Using the growth of B16 melanoma cells in C57B mice, a recognized model for the evaluation of inhibitors of angiogenesis on the growth of cancers, the effects of subcutaneous, intraperitoneal and oral administration of squalamine were evaluated.
Based on the idea that tumor growth involves both the clonal expansion of a malignant cell along with the development of a supporting vascular supply, a combination of compound 1436 with squalamine was tested to determine whether it would achieve a synergistic effect on solid tumor growth. This concept was evaluated in the B16 melanoma model.
Animals were implanted with B16 melanoma followed by treatment with compound 1436 or 1256 administered in a combined schedule or separately. […] Thus, a combination of these two compounds achieves a therapeutic benefit in tumors dependent on neovascularization that may prevent metastatic spread.

[8] = test system: human foreskin fibroblasts; assay: growth inhibition of human foreskin fibroblasts in vitro; type: cell-based; details: 10 μg/ml
[9] = test system: bacteria, fungi and protozoa; details: cited from earlier work
human melanoma 1205Lu = assay: growth of human melanoma 1205Lu in immunocompromised RAG-1 mice; type: in vivo, RAG-1 mice (human tumor)
Text: As apparent from FIG. 5, melanoma 1205Lu develops aggressively in RAG-1 mice after implantation.

[10] = test system: stage 59-60 Xenopus tadpoles; details: 10 μg/ml in water

rabbit NHE3, sequence (P26432 30-832): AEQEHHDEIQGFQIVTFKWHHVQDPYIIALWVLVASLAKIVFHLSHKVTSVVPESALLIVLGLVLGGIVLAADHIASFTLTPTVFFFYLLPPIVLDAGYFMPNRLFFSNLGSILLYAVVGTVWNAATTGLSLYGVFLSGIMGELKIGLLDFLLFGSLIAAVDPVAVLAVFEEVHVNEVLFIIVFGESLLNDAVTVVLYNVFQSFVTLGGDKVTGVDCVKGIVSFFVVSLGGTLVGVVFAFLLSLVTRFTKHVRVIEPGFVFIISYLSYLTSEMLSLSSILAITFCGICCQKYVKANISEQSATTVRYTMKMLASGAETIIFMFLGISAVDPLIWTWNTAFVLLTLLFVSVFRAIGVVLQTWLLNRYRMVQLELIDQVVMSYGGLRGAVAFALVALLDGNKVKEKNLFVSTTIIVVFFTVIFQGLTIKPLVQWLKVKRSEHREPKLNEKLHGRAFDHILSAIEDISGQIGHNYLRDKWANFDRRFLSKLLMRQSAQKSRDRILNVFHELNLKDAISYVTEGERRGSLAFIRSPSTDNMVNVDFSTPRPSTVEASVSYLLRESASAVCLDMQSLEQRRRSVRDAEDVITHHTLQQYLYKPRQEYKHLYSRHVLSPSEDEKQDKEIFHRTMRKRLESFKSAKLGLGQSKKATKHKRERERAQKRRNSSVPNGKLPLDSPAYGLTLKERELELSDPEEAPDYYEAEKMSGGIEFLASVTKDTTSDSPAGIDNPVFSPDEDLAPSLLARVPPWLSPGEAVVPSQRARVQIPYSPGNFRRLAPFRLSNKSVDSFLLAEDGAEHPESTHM

## CC(C)[C@@H](CC[C@@H](C)[C@H]1CC[C@H]2[C@@H]3[C@H](O)C[C@H]4C[C@@H](NCCCNCCCCN)CC[C@]4(C)[C@H]3CC[C@]12C)OS(=O)(=O)O [Squalamine, squalamine]
Human NHE1
  inhibition of human NHE1: no inhibitory activity
Rabbit NHE3; acid-preloaded by 40 mM NH4Cl
  inhibition of NHE3: inhibited NHE3 with respect to proton concentration at both Km and Vmax levels
Rabbit NHE3; cells not acid-preloaded
  resting pH: the resting pH of these cells was also inhibited
[1]
  suppression of growth (in words): suppress in vitro the growth of human coronary artery smooth muscle
[2]; 0.001 μg applied
  vitelline capillary regression: 0
[2]; 0.01 μg applied
  vitelline capillary regression: +
[2]; 0.1 μg applied
  vitelline capillary regression: +
[2]; 1 μg applied
  vitelline capillary regression: +
[2]; 10 μg applied
  vitelline capillary regression: +
[2]; 0.1 ml in 15% Ficol in PBS
  hemolysis: absence of hemolysis
  hemorrhage: No hemorrhage was seen
  lag period before vessel constriction: around 15 minutes
[2]; in vivo
  activity in vitelline capillary regression assay (in words): especially active
  effect on chick embryo vitelline capillaries (in words): found to disrupt vitelline capillaries in 3- to 5-day chick embryos
[3]; day 7
  inhibition of new blood vessel formation: about 60%
[3]; day 14
  inhibition of new blood vessel formation: about 60%
Murine B16 melanoma
  cytostatic activity against B16 in culture: minimal cytostatic activity against B16 in culture
[4]
  growth of bovine pulmonary artery endothelial cells (BPE): inhibited the growth
[5]; 3-day CAM
  amount resulting in inhibition of CAM vessel neovascularization: ≤ 0.65 µg
[5]; ten times 0.65 μg
  inhibitory effect on 13-day old chick: no inhibitory effect
[6]
  growth of epithelial line: no effect on the growth
[7]; 10 μg/ml
  inhibition of blast transformation (in words): Some effect was observed
[7]; Homo sapiens, Lymphocyte, 1 μg/ml, read-out: inhibition of PHA-stimulated human lymphocytes (% control)
  inhibition at 1 µg/mL: 3%
[7]; Homo sapiens, Lymphocyte, 5 μg/ml, read-out: inhibition of PHA-stimulated human lymphocytes (% control)
  inhibition at 5 µg/mL: 8%
[7]; Homo sapiens, Lymphocyte, 10 μg/ml, read-out: inhibition of PHA-stimulated human lymphocytes (% control)
  inhibition at 10 µg/mL: 10%
B16 melanoma; intraperitoneal
  suppression of tumor volume: a dose-dependent suppression of tumor volume was observed
B16 melanoma; oral
  suppression of tumor volume: a dose-dependent suppression of tumor volume was observed
B16 melanoma; s.c., i.p. or oral treatment
  body weight and hematologic parameters: no significant depression
B16 melanoma; squalamine 15 mg/kg/day, compound 1436 alone in a tolerable schedule
  tumor growth, single agent: Neither administration of squalamine at 15 mg/kg/day nor compound 1436 alone in a tolerable schedule could achieve this effect
B16 melanoma; squalamine alone 5 mg/kg/day
  impact on tumor volume: no significant impact on tumor volume
B16 melanoma; subcutaneous
  suppression of tumor volume: a dose-dependent suppression of tumor volume was observed
[8]
  growth of fibroblast line: no effect on the growth
[9]
  antibiotic activity: broad-spectrum antibiotic, killing bacteria, fungi and protozoa
Human melanoma 1205Lu; 10, 20, 40 mg/kg/d, after tumors reached about 0.1 ml
  suppression of melanoma 1205Lu growth: found to suppress the growth of melanoma 1205Lu in RAG-1 mice in a dose-dependent fashion
Human melanoma 1205Lu; in vivo
  tumor growth after cessation of treatment: tumor growth continued at a rate similar to untreated controls
[10]
  time to death of tadpole: ≤ 2 h
[10]; listed as Compound 1256 (Squalamine)
  pharmacological response in tadpole: Vascular occlusion in fine capillaries of tail. No effect on vascular flow through hands or feet.
